{"source": "paper PMC10107836", "about": "(Chembiochem, 2022)", "key": {"AcmJRL [1]": {"molecular_target": "T1, AcmJRL (Ananas comosus, UniProt Q53J09)", "T1 sequence (Q53J09 1-145)": "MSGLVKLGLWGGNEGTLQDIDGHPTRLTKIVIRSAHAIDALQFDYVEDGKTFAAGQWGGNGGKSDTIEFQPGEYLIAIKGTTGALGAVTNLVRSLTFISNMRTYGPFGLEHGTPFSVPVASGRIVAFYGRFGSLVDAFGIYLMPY", "experiment": "Reporter ligand displacement assay", "type": "binding", "details": "carbohydrate at 10 mM"}, "AcmJRL [2]": {"molecular_target": "T1, AcmJRL", "experiment": "Semiotik glycan array with Cy3-labelled AcmJRL", "type": "binding"}, "AcmJRL [3]": {"molecular_target": "T1, AcmJRL", "type": "binding", "details": "for RFU: FITC‐labelled AcmJRL at 50 μg mL^−1, average RFU±s.d. from 6 replicates"}, "[4]": {"test_system": "AcmJRL−S‐protein interaction", "type": "binding, SARS‐CoV‐2"}, "[5]": {"molecular_target": "SARS-CoV-2 spike RBD (SARS-CoV-2) (UniProt P0DTC2)", "experiment": "SPR"}, "[6]": {"molecular_target": "human angiotensin-converting-enzyme-2 (ACE2) receptor, recombinant (human) (UniProt Q9BYF1)", "sequence (Q9BYF1 18-740)": "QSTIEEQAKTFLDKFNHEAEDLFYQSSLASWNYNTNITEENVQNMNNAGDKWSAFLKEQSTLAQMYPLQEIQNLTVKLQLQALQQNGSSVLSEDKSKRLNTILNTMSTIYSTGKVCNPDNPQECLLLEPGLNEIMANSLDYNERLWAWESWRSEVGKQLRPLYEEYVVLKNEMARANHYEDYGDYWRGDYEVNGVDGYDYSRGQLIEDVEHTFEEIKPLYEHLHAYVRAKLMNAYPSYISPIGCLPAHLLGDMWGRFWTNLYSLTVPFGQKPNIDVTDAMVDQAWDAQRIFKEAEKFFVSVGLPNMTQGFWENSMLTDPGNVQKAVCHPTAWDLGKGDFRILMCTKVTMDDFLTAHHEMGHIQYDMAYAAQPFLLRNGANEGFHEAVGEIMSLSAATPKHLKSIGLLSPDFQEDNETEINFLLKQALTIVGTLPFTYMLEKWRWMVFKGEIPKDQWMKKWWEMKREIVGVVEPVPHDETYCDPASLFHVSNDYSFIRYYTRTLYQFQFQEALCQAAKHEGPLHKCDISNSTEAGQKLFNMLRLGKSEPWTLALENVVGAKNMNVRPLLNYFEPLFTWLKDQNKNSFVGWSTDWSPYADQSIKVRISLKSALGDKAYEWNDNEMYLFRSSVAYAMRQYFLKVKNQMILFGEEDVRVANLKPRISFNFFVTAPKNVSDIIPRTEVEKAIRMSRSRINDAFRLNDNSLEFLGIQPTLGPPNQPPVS", "experiment": "SPR"}, "AcmJRL [7]": {"molecular_target": "T2, AcmJRL (Ananas comosus, UniProt Q53J09)", "T2 sequence (Q53J09 2-145)": "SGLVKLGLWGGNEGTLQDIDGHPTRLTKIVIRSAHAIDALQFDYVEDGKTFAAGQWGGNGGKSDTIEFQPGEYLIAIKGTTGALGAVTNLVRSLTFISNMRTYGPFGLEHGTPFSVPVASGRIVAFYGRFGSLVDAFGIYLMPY", "type": "biochemical", "details": "SD, n = 3"}}, "note": "Values joined by “and” are separate entries in the source; they are usually repeats but may differ in a detail not shown here. Identical values can stand only once.", "data": [{"compound": "O=C[C@H](O)[C@@H](O)[C@H](O[C@@H]1O[C@H](CO)[C@@H](O)[C@H](O)[C@H]1O)[C@H](O)CO", "note": "[cellobiose, Glc‐β‐1,4‐Glc]", "values": [{"measurement": "inhibition of AcmJRL, single concentration (in words)", "setting": "AcmJRL [1]", "result": "had no effect"}]}, {"compound": "-8(D-Ala1-7)Leg5Acα2-4GlcAβ1-3GlcNAcβ1- [E. coli O161]", "values": [{"measurement": "binding on Semiotik glycan array (in words)", "setting": "AcmJRL [2]", "result": "recognised"}]}, {"compound": "Man‐α‐1,6(Man‐α‐1,3)Man‐α‐1,6(Man‐α‐1,3)Man‐β [CFG‐GLYCAN ID 310]", "values": [{"measurement": "RFU", "setting": "AcmJRL [3]", "result": "410±141", "unit": "RFU"}, {"measurement": "binding response on CFG glycan array (in words)", "setting": "AcmJRL [3]; FITC‐labelled AcmJRL, 5 and 50 μg mL^−1", "result": "highest binding responses"}]}, {"compound": "OC[C@H]1O[C@H](O[C@H]2[C@H](O)[C@@H](O)[C@H](O)O[C@@H]2CO)[C@H](O)[C@@H](O)[C@@H]1O", "note": "[maltobiose, Glc‐α‐1,4‐Glc]", "values": [{"measurement": "inhibition of AcmJRL, single concentration (in words)", "setting": "AcmJRL [1]", "result": "showed highest inhibition"}]}, {"compound": "-3GalNAcβ1-4(L6dTalα1-3)Manα1-3L6dTalα1- [A. hydrophila O34deAc]", "values": [{"measurement": "binding on Semiotik glycan array (in words)", "setting": "AcmJRL [2]", "result": "recognised"}]}, {"compound": "CC(=O)N[C@@H]1[C@@H](O)[C@H](O)[C@@H](CO)O[C@H]1O", "note": "[D-GlcNAc, N‐acetylglucosamine]", "values": [{"measurement": "inhibition of AcmJRL, single concentration (in words)", "setting": "AcmJRL [1]", "result": "confirmed as ligands"}]}, {"compound": "-6Manα1- [Mannan]", "values": [{"measurement": "binding on Semiotik glycan array (in words)", "setting": "AcmJRL [2]", "result": "confirmed as a ligand"}]}, {"compound": "OC[C@H]1O[C@H](O[C@H]2[C@H](O)[C@@H](O)[C@H](O)O[C@@H]2CO)[C@H](O)[C@@H](O)[C@@H]1O", "note": "[CFG‐GLYCAN ID 195, Glc‐α‐1,4‐Glc‐β]", "values": [{"measurement": "RFU", "setting": "AcmJRL [3]", "result": "33±5", "unit": "RFU"}]}, {"compound": "OC[C@H]1O[C@H](OC[C@H]2O[C@H](O[C@]3(CO)O[C@H](CO)[C@@H](O)[C@@H]3O)[C@H](O)[C@@H](O)[C@@H]2O)[C@H](O)[C@@H](O)[C@H]1O", "note": "[D‐raffinose, Gal‐α‐1,6Glc‐α‐1,2Fruc]", "values": [{"measurement": "effect on AcmJRL binding to S-protein (in words)", "setting": "[4]", "result": "did not interfere"}]}, {"compound": "Manα1-6(Manα1-3)Manβ-sp4 [(Ma)3b]", "values": [{"measurement": "binding on Semiotik glycan array (in words)", "setting": "AcmJRL [2]", "result": "showed no binding"}]}, {"compound": "pineapple-derived jacalin-related lectin AcmJRL (natural protein)", "values": [{"measurement": "Kd", "setting": "[5]", "result": "12.9 µM and 35 µM"}, {"measurement": "koff", "setting": "[5]", "result": 0.0194, "unit": "s⁻¹"}, {"measurement": "kon", "setting": "[5]", "result": 1490, "unit": "M⁻¹ s⁻¹"}, {"measurement": "Kd", "setting": "[6]", "result": 22.1, "unit": "µM"}, {"measurement": "koff", "setting": "[6]", "result": 0.0122, "unit": "s⁻¹"}, {"measurement": "kon", "setting": "[6]", "result": 590, "unit": "M⁻¹ s⁻¹"}]}, {"compound": "N[C@H]1C(O)O[C@H](CO)[C@@H](O)[C@@H]1O", "note": "(some centres unmarked) [glucosamine]", "values": [{"measurement": "inhibition of AcmJRL, single concentration (in words)", "setting": "AcmJRL [1]", "result": "confirmed as ligands"}]}, {"compound": "CO[C@H]1O[C@H](CO)[C@@H](O)[C@H](O)[C@@H]1O", "note": "[Me-α-D-Man, methyl α-D-mannopyranoside]", "values": [{"measurement": "IC50", "setting": "AcmJRL [7]", "result": 10.7, "unit": "mM"}]}, {"compound": "OC[C@H]1O[C@@H](O[C@H]2[C@H](O)[C@@H](O)[C@H](O)O[C@@H]2CO)[C@H](O)[C@@H](O)[C@H]1O", "note": "[D‐lactose, Gal‐β‐1,4Glc]", "values": [{"measurement": "effect on AcmJRL binding to S-protein (in words)", "setting": "[4]", "result": "did not interfere"}]}]}
